Data as given in PubChem BioAssay AID2060610 (Molecular Pharmacology Branch, DTP, NCI, 2025).
Values joined by “and” are separate entries in the source; they are usually repeats but may differ in a detail not shown here. Identical values can stand only once.

System: 616215-338-R-J1-PDC complex spheroids, viability % test/control
Test: Anticancer human tumor 616215-338-R-J1-PDC patient-derived colon adenocarcinoma cell line growth inhibition [CLK]
Settings: for viability, T/C: stronger effect = lower value
Source text: A high-throughput screen of multi-cell type tumor spheroids was designed to identify active combinations of […] and targeted small molecules. Complex spheroids include a stromal component modeled by human endothelial cells (HUVEC) and fibroblasts modeled by human mesenchymal stem cells (MSCs). The concentration ranges selected for each drug and investigational agent were based upon clinically achievable concentrations if the clinical Cmax of the agent was known.
Compounds. The drugs and investigational agents: cirtuvivint (SM08502; NSC835563), CC-671 (NSC850746), vemurafenib (NSC761431), tapotoclax (NSC804041), sotorasib (NSC818433), adagrasib (NSC831453), MRTX-1133 (NSC836407), BAY2416964 (NSC825713), copanlisib (NSC816437), inavolisib (NSC800729), abemaciclib (NSC768073), osimertinib (NSC779217), entinostat (NSC756642), eltanexor (KPT-8602, NSC794443), venetoclax (NSC766270), ceralasertib (NSC777638), bortezomib (NSC756655), olaparib (NSC753686), talazoparib (NSC767125), alisertib (NSC759677), peposertib (NSC802822), gemcitabine (NSC613327), 5-fluorouracil (NSC19893), SN-38 (NSC673596), oxaliplatin (NSC266046), paclitaxel (NSC125973), and doxorubicin (NSC123127), were obtained from the National Cancer Institute (NCI) Developmental Therapeutics Program Chemical Repository. The FDA-approved anticancer drug set is available from the Developmental Therapeutics Program at https://dtp.cancer.gov/organization/dscb/obtaining/available plates.htm. […] The stock solutions were prepared in dimethyl sulfoxide (DMSO, Sigma-Aldrich, St. Louis, MO, cat. D2650), except for the platinum complexes which were prepared in saline (Quality Biological, Gaithersburg, MD, cat. 114-055-101), at 800-fold the tested concentration and stored at -70 degrees C prior to their use. All drugs and investigational agents were tested over a range starting from a high concentration at or near the clinical Cmax and decreasing in half-log increments. If the clinical Cmax for an agent had not been determined, the highest concentration tested was 10 microM.
Cell Culture. All cells were maintained in an incubator at 37 degrees C and 5% CO2 with 95% humidity. The PDC lines were cultured according to standard operating procedures established by the NCI PDMR. Briefly, all PDCs were thawed and cultured in Matrigel-coated flasks prepared with a working solution of 1X Ham's F-12 nutrient mix, without supplementation (Invitrogen, Waltham, MA, cat. 11765054), 100 U/mL penicillin-streptomycin (Invitrogen, cat. 15140122), and 2.5% Matrigel (Corning Inc., Corning, NY, cat. 354248) for the first three passages. The 947758-054-R-J2-PDC line was cultured in 6B/Colon 1A media, which includes advanced DMEM/F-12 (Thermo Fisher Scientific, cat. 12634028), 10 mM HEPES (Thermo Fisher Scientific, cat. 15630080), 1X GlutaMAX supplement (Thermo Fisher Scientific, cat. 35050061), 0.1 mg/mL primocin (InvivoGen, cat. ant-pm-2), 10% defined fetal bovine serum, heat inactivated (HyClone Laboratories Inc., cat. SH30070.03HI), 1.25 mM N-Acetyl-L-cysteine (Sigma-Aldrich, cat. A9165), 10 mM nicotinamide (Sigma-Aldrich, cat. N0636), 1X B-27 supplement (Thermo Fisher Scientific, cat. 17504044), 1X N-2 supplement (Thermo Fisher Scientific, cat. 17502048), and 10 microM Y-27632 dihydrochloride (Tocris Bioscience, cat. 1254). The 876862-298-R-J1-PDC was cultured in 6E media, which includes all 6B/Colon 1A media components plus 50% L-WRN conditioned media (ATCC, cat. CRL-3276), 50 ng/mL recombinant human EGF recombinant protein (hEGF; Thermo Fisher Scientific, cat. PHG0311), 10 ng/mL recombinant human fibroblast growth factor 10 (hGFG-10; PeproTech, cat. 100-26), 1 ng/mL recombinant human fibroblast growth factor 2 (hFGF-2; PeproTech, cat. 100-18B), and 1 µM prostaglandin E2 (PGE2; Tocris, cat. 2296). The 227483-062-R1-J1-PDC line was cultured in Panc media, containing all 6E components except hFGF-2, with the addition of 500 nM SB-431542 (Selleckchem, cat. S1067) and 10 nM gastrin (Tocris, cat. 3006). […]

[1] = curve of first compound, second compound 0.0316 µM
[2] = curve of first compound, second compound 0.1 µM
[3] = curve of first compound, second compound 0.316 µM
[4] = curve of first compound, second compound 1 µM
[5] = curve of first compound, second compound 3.16 µM
[6] = curve of first compound, second compound 10 µM
[7] = second compound 0.0316 µM, first compound 0.0316 µM
[8] = second compound 0.0316 µM, first compound 0.1 µM
[9] = second compound 0.0316 µM, first compound 0.316 µM
[10] = second compound 0.0316 µM, first compound 1 µM
[11] = second compound 0.0316 µM, first compound 3.16 µM
[12] = second compound 0.0316 µM, first compound 10 µM
[13] = second compound 0.1 µM, first compound 0.0316 µM
[14] = second compound 0.1 µM, first compound 0.1 µM
[15] = second compound 0.1 µM, first compound 0.316 µM
[16] = second compound 0.1 µM, first compound 1 µM
[17] = second compound 0.1 µM, first compound 3.16 µM
[18] = second compound 0.1 µM, first compound 10 µM
[19] = second compound 0.316 µM, first compound 0.0316 µM
[20] = second compound 0.316 µM, first compound 0.1 µM
[21] = second compound 0.316 µM, first compound 0.316 µM
[22] = second compound 0.316 µM, first compound 1 µM
[23] = second compound 0.316 µM, first compound 3.16 µM
[24] = second compound 0.316 µM, first compound 10 µM
[25] = second compound 1 µM, first compound 0.0316 µM
[26] = second compound 1 µM, first compound 0.1 µM
[27] = second compound 1 µM, first compound 0.316 µM
[28] = second compound 1 µM, first compound 1 µM
[29] = second compound 1 µM, first compound 3.16 µM
[30] = second compound 1 µM, first compound 10 µM
[31] = second compound 3.16 µM, first compound 0.0316 µM
[32] = second compound 3.16 µM, first compound 0.1 µM
[33] = second compound 3.16 µM, first compound 0.316 µM
[34] = second compound 3.16 µM, first compound 1 µM
[35] = second compound 3.16 µM, first compound 3.16 µM
[36] = second compound 3.16 µM, first compound 10 µM
[37] = second compound 10 µM, first compound 0.0316 µM
[38] = second compound 10 µM, first compound 0.1 µM
[39] = second compound 10 µM, first compound 0.316 µM
[40] = second compound 10 µM, first compound 1 µM
[41] = second compound 10 µM, first compound 3.16 µM
[42] = second compound 10 µM, first compound 10 µM
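Note: spheroids exposed to agents for 7 days.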
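Throughout, for viability, T/C: 100% = DMSO vehicle wells.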

SMILES: C=CC(=O)N1CCN(c2nc(=O)n(-c3c(C)ccnc3C(C)C)c3nc(-c4c(O)cccc4F)c(F)cc23)C(C)C1 (stereo unspecified) + CN1CCN(c2cc(C(=O)Nc3cc4cc(-c5cnn(C)c5)ccc4cn3)ccn2)CC1
- IC50 [1]: > 10 µM
- IC50 [2]: > 10 µM
- IC50 [3]: < 0.0316 µM
- IC50 [4]: < 0.0316 µM
- IC50 [5]: < 0.0316 µM
- IC50 [6]: < 0.0316 µM
- viability, T/C [7]: 104%
- viability, T/C [8]: 116%
- viability, T/C [9]: 107%
- viability, T/C [10]: 104%
- viability, T/C [11]: 111%
- viability, T/C [12]: 102%
- viability, T/C [13]: 116%
- viability, T/C [14]: 113%
- viability, T/C [15]: 107%
- viability, T/C [16]: 114%
- viability, T/C [17]: 115%
- viability, T/C [18]: 110%
- viability, T/C [19]: 34.9%
- viability, T/C [20]: 43%
- viability, T/C [21]: 43.7%
- viability, T/C [22]: 50.9%
- viability, T/C [23]: 49.9%
- viability, T/C [24]: 28.1%
- viability, T/C [25]: 0.2%
- viability, T/C [26]: 0.5%
- viability, T/C [27]: 0.21%
- viability, T/C [28]: 0.2%
- viability, T/C [29]: 0.15%
- viability, T/C [30]: 0.24%
- viability, T/C [31]: 0.13%
- viability, T/C [32]: 1.31%
- viability, T/C [33]: 0.14%
- viability, T/C [34]: 0.14%
- viability, T/C [35]: 0.13%
- viability, T/C [36]: 1.21%
- viability, T/C [37]: 0.17%
- viability, T/C [38]: 0.19%
- viability, T/C [39]: 0.51%
- viability, T/C [40]: 0.2%
- viability, T/C [41]: 0.2%
- viability, T/C [42]: 0.17%

SMILES: O=C(c1cc(Cc2n[nH]c(=O)c3ccccc23)ccc1F)N1CCN(C(=O)C2CC2)CC1
- viability, T/C (compound 0.0316 µM): 96.4% and 102%
- viability, T/C (compound 0.1 µM): 96.1% and 94.5%
- viability, T/C (compound 0.316 µM): 87.9% and 96.6%
- viability, T/C (compound 1 µM): 88.2% and 93.6%
- viability, T/C (compound 3.16 µM): 106% and 99.5%
- viability, T/C (compound 10 µM): 97.4% and 99.5%
- IC50 (curve of compound): > 10 µM

SMILES: CC1(C)CCC(CN2CCN(c3ccc(C(=O)NS(=O)(=O)c4ccc(NCC5CCOCC5)c([N+](=O)[O-])c4)c(Oc4cnc5[nH]ccc5c4)c3)CC2)=C(c2ccc(Cl)cc2)C1 + CN1CCN(c2cc(C(=O)Nc3cc4cc(-c5cnn(C)c5)ccc4cn3)ccn2)CC1
- IC50 [1]: 5.82 µM
- IC50 [2]: 4.31 µM
- IC50 [3]: < 0.0316 µM
- IC50 [4]: < 0.0316 µM
- IC50 [5]: < 0.0316 µM
- IC50 [6]: < 0.0316 µM
- viability, T/C [7]: 105%
- viability, T/C [8]: 106%
- viability, T/C [9]: 102%
- viability, T/C [10]: 103%
- viability, T/C [11]: 106%
- viability, T/C [12]: 1.63%
- viability, T/C [13]: 109%
- viability, T/C [14]: 118%
- viability, T/C [15]: 110%
- viability, T/C [16]: 129%
- viability, T/C [17]: 67.9%
- viability, T/C [18]: 1.54%
- viability, T/C [19]: 35.4%
- viability, T/C [20]: 31.4%
- viability, T/C [21]: 32%
- viability, T/C [22]: 26.9%
- viability, T/C [23]: 12.7%
- viability, T/C [24]: 1.79%
- viability, T/C [25]: 0.16%
- viability, T/C [26]: 0.22%
- viability, T/C [27]: 0.2%
- viability, T/C [28]: 0.16%
- viability, T/C [29]: 2.45%
- viability, T/C [30]: 0.3%
- viability, T/C [31]: 0.12%
- viability, T/C [32]: 0.14%
- viability, T/C [33]: 0.15%
- viability, T/C [34]: 0.12%
- viability, T/C [35]: 0.11%
- viability, T/C [36]: 0.62%
- viability, T/C [37]: 0.13%
- viability, T/C [38]: 0.14%
- viability, T/C [39]: 0.16%
- viability, T/C [40]: 0.15%
- viability, T/C [41]: 3.51%
- viability, T/C [42]: 0.2%
